Reference: patent US20220370406A1, “METHOD OF TREATING STIMULANT USE DISORDER USING A COMBINATION OF TOPIRAMATE AND PHENTERMINE” (University of Kentucky Research Foundation, priority 2019, published 2022)

Tested on: participants with cocaine use disorder
Test: Medical safety session: subjective effects questionnaires after intranasal cocaine
Format: in vivo, human
Procedure: Participants completed one, single-blind medical safety session to ensure they could tolerate intranasal cocaine. Intranasal cocaine doses (i.e., 0 [placebo], 10, 20, 40 and 80 mg) were administered in ascending order. Placebo (i.e., 0 mg) was administered at 0900 hours. The subjective-effect questionnaires and cardiovascular measures described below were completed 30 minutes before placebo administration (i.e., 0830 hours), immediately following and at 15-minute intervals for 45 minutes. Subsequent cocaine administrations were separated by 45 minutes.

[1] = Cocaine 40 mg, Topiramate (0 mg/day) group
[2] = Cocaine 40 mg, Topiramate (50 mg/day) group
[3] = Cocaine 40 mg, Topiramate (100 mg/day) group
[4] = Cocaine 80 mg, Topiramate (0 mg/day) group
[5] = Cocaine 80 mg, Topiramate (50 mg/day) group
[6] = Cocaine 80 mg, Topiramate (100 mg/day) group

With `COC(=O)[C@H]1[C@@H](OC(=O)c2ccccc2)C[C@@H]2CC[C@H]1N2C` [Cocaine, cocaine] the “Adjective Rating Scales Sedative, mean peak effect” value (shortened to “Adjective Rating Scales Sedative”) [1] was 3.2, the “Adjective Rating Scales Stimulant, mean peak effect” value (“Adjective Rating Scales Stimulant” for short) [1] was 0.0 and the “Drug-Effect Questionnaire Active-Alert-Energetic, mean peak effect” value [1] was 26.0. The “Drug-Effect Questionnaire Any Effect, mean peak effect” value (“Drug-Effect Questionnaire Any Effect” for short) [1] was 33.3, the “Drug-Effect Questionnaire Bad Effects, mean peak effect” value (“Drug-Effect Questionnaire Bad Effects” below) [1] was 9.0 and the “Drug-Effect Questionnaire Euphoric, mean peak effect” value (“Drug-Effect Questionnaire Euphoric” below) [1] was 10.6. The “Drug-Effect Questionnaire Good Effects, mean peak effect” value (“Drug-Effect Questionnaire Good Effects” for short) [1] was 33.9, the “Drug-Effect Questionnaire High, mean peak effect” value (from here on “Drug-Effect Questionnaire High”) [1] was 29.5 and the “Drug-Effect Questionnaire Irregular Heart Beat, mean peak effect” value [1] was 7.4. The “Drug-Effect Questionnaire Like Drug, mean peak effect” value (from here on “Drug-Effect Questionnaire Like Drug”) [1] was 36.1, the “Drug-Effect Questionnaire Nausea-Queasy-Sick, mean peak effect” value [1] was 3.2 and the “Drug-Effect Questionnaire Nervous-Anxious, mean peak effect” value [1] was 10.1. For the same molecule, the “Drug-Effect Questionnaire Performance Impaired, mean peak effect” value [1] was 10.7, the “Drug-Effect Questionnaire Performance Improved, mean peak effect” value [1] was 10.7 and the “Drug-Effect Questionnaire Restless, mean peak effect” value (shortened to “Drug-Effect Questionnaire Restless”) [1] was 10.4. The “Drug-Effect Questionnaire Rush, mean peak effect” value (shortened to “Drug-Effect Questionnaire Rush”) [1] was 28.1, the “Drug-Effect Questionnaire Shaky-Jittery, mean peak effect” value (shortened to “Drug-Effect Questionnaire Shaky-Jittery”) [1] was 9.7 and the “Drug-Effect Questionnaire Sluggish-Fatigued-Lazy, mean peak effect” value [1] was 9.0. The “Drug-Effect Questionnaire Stimulated, mean peak effect” value (“Drug-Effect Questionnaire Stimulated” below) [1] was 21.1, the “Drug-Effect Questionnaire Talkative-Friendly, mean peak effect” value [1] was 16.7 and the “Drug-Effect Questionnaire Willing to Pay For, mean peak effect” value [1] was 32.8. The “Drug-Effect Questionnaire Willing to Take Again, mean peak effect” value [1] was 40.6, the “Adjective Rating Scales Sedative” value [2] was 2.1 and the “Adjective Rating Scales Stimulant” value [2] was 10.1. The “Drug-Effect Questionnaire Active-Alert-Energetic, mean peak effect” value [2] was 24.7, the “Drug-Effect Questionnaire Any Effect” value [2] was 19.3 and the “Drug-Effect Questionnaire Bad Effects” value [2] was 7.2. For the same molecule, the “Drug-Effect Questionnaire Euphoric” value [2] was 6.2, the “Drug-Effect Questionnaire Good Effects” value [2] was 17.0 and the “Drug-Effect Questionnaire High” value [2] was 29.9. For the same molecule, the “Drug-Effect Questionnaire Irregular Heart Beat, mean peak effect” value [2] was 6.0, the “Drug-Effect Questionnaire Like Drug” value [2] was 16.7 and the “Drug-Effect Questionnaire Nausea-Queasy-Sick, mean peak effect” value [2] was 9.8. For the same molecule, the “Drug-Effect Questionnaire Nervous-Anxious, mean peak effect” value [2] was 1.8, the “Drug-Effect Questionnaire Performance Impaired, mean peak effect” value [2] was 1.9 and the “Drug-Effect Questionnaire Performance Improved, mean peak effect” value [2] was 10.6. The “Drug-Effect Questionnaire Restless” value [2] was 2.9, the “Drug-Effect Questionnaire Rush” value [2] was 30.0 and the “Drug-Effect Questionnaire Shaky-Jittery” value [2] was 2.8. The “Drug-Effect Questionnaire Sluggish-Fatigued-Lazy, mean peak effect” value [2] was 0.1, the “Drug-Effect Questionnaire Stimulated” value [2] was 22.3 and the “Drug-Effect Questionnaire Talkative-Friendly, mean peak effect” value [2] was 13.6. The “Drug-Effect Questionnaire Willing to Pay For, mean peak effect” value [2] was 17.0, the “Drug-Effect Questionnaire Willing to Take Again, mean peak effect” value [2] was 17.4 and the “Adjective Rating Scales Sedative” value [3] was 5.1. The “Adjective Rating Scales Stimulant” value [3] was 11.8, the “Drug-Effect Questionnaire Active-Alert-Energetic, mean peak effect” value [3] was 13.8 and the “Drug-Effect Questionnaire Any Effect” value [3] was 22.1. For the same molecule, the “Drug-Effect Questionnaire Bad Effects” value [3] was 3.0, the “Drug-Effect Questionnaire Euphoric” value [3] was 6.7 and the “Drug-Effect Questionnaire Good Effects” value [3] was 24.0. The “Drug-Effect Questionnaire High” value [3] was 23.6, the “Drug-Effect Questionnaire Irregular Heart Beat, mean peak effect” value [3] was 9.0 and the “Drug-Effect Questionnaire Like Drug” value [3] was 20.8. The “Drug-Effect Questionnaire Nausea-Queasy-Sick, mean peak effect” value [3] was 16.2, the “Drug-Effect Questionnaire Nervous-Anxious, mean peak effect” value [3] was 8.1 and the “Drug-Effect Questionnaire Performance Impaired, mean peak effect” value [3] was 4.1. For the same molecule, the “Drug-Effect Questionnaire Performance Improved, mean peak effect” value [3] was 5.0, the “Drug-Effect Questionnaire Restless” value [3] was 9.1 and the “Drug-Effect Questionnaire Rush” value [3] was 20.1. The “Drug-Effect Questionnaire Shaky-Jittery” value [3] was 8.7, the “Drug-Effect Questionnaire Sluggish-Fatigued-Lazy, mean peak effect” value [3] was 9.1 and the “Drug-Effect Questionnaire Stimulated” value [3] was 16.5. For the same molecule, the “Drug-Effect Questionnaire Talkative-Friendly, mean peak effect” value [3] was 13.2, the “Drug-Effect Questionnaire Willing to Pay For, mean peak effect” value [3] was 15.0 and the “Drug-Effect Questionnaire Willing to Take Again, mean peak effect” value [3] was 16.4. For the same molecule, the “Adjective Rating Scales Sedative” value [4] was 4.1, the “Adjective Rating Scales Stimulant” value [4] was 8.5 and the “Drug-Effect Questionnaire Active-Alert-Energetic, mean peak effect” value [4] was 25.6. For the same molecule, the “Drug-Effect Questionnaire Any Effect” value [4] was 39.1, the “Drug-Effect Questionnaire Bad Effects” value [4] was 8.2 and the “Drug-Effect Questionnaire Euphoric” value [4] was 10.5. For the same molecule, the “Drug-Effect Questionnaire Good Effects” value [4] was 33.3, the “Drug-Effect Questionnaire High” value [4] was 27.7 and the “Drug-Effect Questionnaire Irregular Heart Beat, mean peak effect” value [4] was 14.4. For the same molecule, the “Drug-Effect Questionnaire Like Drug” value [4] was 34.6, the “Drug-Effect Questionnaire Nausea-Queasy-Sick, mean peak effect” value [4] was 8.8 and the “Drug-Effect Questionnaire Nervous-Anxious, mean peak effect” value [4] was 12.1. For the same molecule, the “Drug-Effect Questionnaire Performance Impaired, mean peak effect” value [4] was 10.5, the “Drug-Effect Questionnaire Performance Improved, mean peak effect” value [4] was 11.5 and the “Drug-Effect Questionnaire Restless” value [4] was 10.1. The “Drug-Effect Questionnaire Rush” value [4] was 27.3, the “Drug-Effect Questionnaire Shaky-Jittery” value [4] was 13.8 and the “Drug-Effect Questionnaire Sluggish-Fatigued-Lazy, mean peak effect” value [4] was 5.7. For the same molecule, the “Drug-Effect Questionnaire Stimulated” value [4] was 21.1, the “Drug-Effect Questionnaire Talkative-Friendly, mean peak effect” value [4] was 17.9 and the “Drug-Effect Questionnaire Willing to Pay For, mean peak effect” value [4] was 30.5. The “Drug-Effect Questionnaire Willing to Take Again, mean peak effect” value [4] was 38.4, the “Adjective Rating Scales Sedative” value [5] was 2.4 and the “Adjective Rating Scales Stimulant” value [5] was 13.2. The “Drug-Effect Questionnaire Active-Alert-Energetic, mean peak effect” value [5] was 31.4, the “Drug-Effect Questionnaire Any Effect” value [5] was 29.6 and the “Drug-Effect Questionnaire Bad Effects” value [5] was 10.4. The “Drug-Effect Questionnaire Euphoric” value [5] was 14.7, the “Drug-Effect Questionnaire Good Effects” value [5] was 24.0 and the “Drug-Effect Questionnaire High” value [5] was 31.8. For the same molecule, the “Drug-Effect Questionnaire Irregular Heart Beat, mean peak effect” value [5] was 0.8, the “Drug-Effect Questionnaire Like Drug” value [5] was 28.4 and the “Drug-Effect Questionnaire Nausea-Queasy-Sick, mean peak effect” value [5] was 1.2. The “Drug-Effect Questionnaire Nervous-Anxious, mean peak effect” value [5] was 2.2, the “Drug-Effect Questionnaire Performance Impaired, mean peak effect” value [5] was 1.9 and the “Drug-Effect Questionnaire Performance Improved, mean peak effect” value [5] was 11.2. The “Drug-Effect Questionnaire Restless” value [5] was 7.8, the “Drug-Effect Questionnaire Rush” value [5] was 28.4 and the “Drug-Effect Questionnaire Shaky-Jittery” value [5] was 4.8. The “Drug-Effect Questionnaire Sluggish-Fatigued-Lazy, mean peak effect” value [5] was 0.0, the “Drug-Effect Questionnaire Stimulated” value [5] was 31.8 and the “Drug-Effect Questionnaire Talkative-Friendly, mean peak effect” value [5] was 14.3. The “Drug-Effect Questionnaire Willing to Pay For, mean peak effect” value [5] was 30.6, the “Drug-Effect Questionnaire Willing to Take Again, mean peak effect” value [5] was 30.3 and the “Adjective Rating Scales Sedative” value [6] was 7.8. The “Adjective Rating Scales Stimulant” value [6] was 15.7, the “Drug-Effect Questionnaire Active-Alert-Energetic, mean peak effect” value [6] was 24.5 and the “Drug-Effect Questionnaire Any Effect” value [6] was 39.5. For the same molecule, the “Drug-Effect Questionnaire Bad Effects” value [6] was 12.2, the “Drug-Effect Questionnaire Euphoric” value [6] was 16.2 and the “Drug-Effect Questionnaire Good Effects” value [6] was 27.9. For the same molecule, the “Drug-Effect Questionnaire High” value [6] was 42.0, the “Drug-Effect Questionnaire Irregular Heart Beat, mean peak effect” value [6] was 24.1 and the “Drug-Effect Questionnaire Like Drug” value [6] was 32.4. The “Drug-Effect Questionnaire Nausea-Queasy-Sick, mean peak effect” value [6] was 20.5, the “Drug-Effect Questionnaire Nervous-Anxious, mean peak effect” value [6] was 22.9 and the “Drug-Effect Questionnaire Performance Impaired, mean peak effect” value [6] was 12.9. For the same molecule, the “Drug-Effect Questionnaire Performance Improved, mean peak effect” value [6] was 9.5, the “Drug-Effect Questionnaire Restless” value [6] was 11.1 and the “Drug-Effect Questionnaire Rush” value [6] was 36.1. The “Drug-Effect Questionnaire Shaky-Jittery” value [6] was 22.1, the “Drug-Effect Questionnaire Sluggish-Fatigued-Lazy, mean peak effect” value [6] was 22.0 and the “Drug-Effect Questionnaire Stimulated” value [6] was 31.1. The “Drug-Effect Questionnaire Talkative-Friendly, mean peak effect” value [6] was 16.1, the “Drug-Effect Questionnaire Willing to Pay For, mean peak effect” value [6] was 21.0 and the “Drug-Effect Questionnaire Willing to Take Again, mean peak effect” value [6] was 33.6.
